According to patent publication US11365187B2, “Pesticidally active pyrazole derivatives” (SYNGENTA PARTICIPATIONS AG, priority 2017, dated 2022):
Where two headings read alike, the source gives them in different places.

How the values were obtained:
Format in all cases: in vivo
[1] = tested on: Spodoptera littoralis (Egyptian cotton leaf worm); assay: Spodoptera littoralis feeding/contact activity on cotton leaf discs; settings: foliar, 72 h
Procedure: Spodoptera littoralis (Egyptian cotton leaf worm): Feeding/contact activity
Cotton leaf discs were placed onto agar in 24-well microtiter plates and sprayed with aqueous test solutions prepared from 10′000 ppm DMSO stock solutions. After drying the leaf discs were infested with five L1 larvae. The samples were assessed for mortality 3 days after infestation. […] 2, 3, 4, 5, 6, 7, 8, 9, 10, 11, 12, 13, 14, 15, 16, 17, 18, 19, 20, 21, 22, 23, 24, 25, 26, 27, 28 and 29.

[2] = tested on: Plutella xylostella (Diamond back moth); assay: Plutella xylostella feeding/contact activity on artificial diet; settings: 120 h
Procedure: Plutella xylostella (Diamond back moth): Feeding/contact activity
24-well microtiter plates with artificial diet were treated with aqueous test solutions prepared from 10′000 ppm DMSO stock solutions by pipetting. After drying, the plates were infested with L2 larvae (10 to 15 per well). The samples were assessed for mortality 5 days after infestation.

[3] = tested on: Myzus persicae (Green peach aphid); assay: Myzus persicae feeding/contact activity on sunflower leaf discs; settings: foliar, 144 h
Procedure: Myzus persicae (Green peach aphid): Feeding/Contact activity
Sunflower leaf discs were placed onto agar in a 24-well microtiter plate and sprayed with aqueous test solutions prepared from 10′000 ppm DMSO stock solutions. After drying, the leaf discs were infested with an aphid population of mixed ages. The samples were assessed for mortality 6 days after infestation.

[4] = tested on: Euschistus heros (Neotropical Brown Stink Bug); assay: Euschistus heros feeding/contact activity on soybean leaves; settings: 120 h
Procedure: Euschistus heros (Neotropical Brown Stink Bug): Feeding/contact activity
Soybean leaves on agar in 24-well microtiter plates were sprayed with aqueous test solutions prepared from 10′000 ppm DMSO stock solutions. After drying the leaves were infested with N2 nymphs. The samples were assessed for mortality 5 days after infestation.

[5] = tested on: Tetranychus urticae (Two-spotted spider mite); assay: Tetranychus urticae feeding/contact activity on bean leaf discs; settings: foliar, 192 h, read-out: mortality on mixed population (mobile stages)
Procedure: Tetranychus urticae (Two-spotted spider mite): Feeding/contact activity
Bean leaf discs on agar in 24-well microtiter plates were sprayed with aqueous test solutions prepared from 10′000 ppm DMSO stock solutions. After drying the leaf discs were infested with a mite population of mixed ages. The samples were assessed for mortality on mixed population (mobile stages) 8 days after infestation.

[6] = application rate 200 ppm, L1 larvae, assessed 3 days after infestation, read-out: mortality
[7] = application rate 200 ppm, L2 larvae, assessed 5 days after infestation, read-out: mortality
[8] = application rate 200 ppm, aphid population of mixed ages, assessed 6 days after infestation, read-out: mortality
[9] = application rate 200 ppm, N2 nymphs, assessed 5 days after infestation, read-out: mortality
[10] = application rate 200 ppm, mite population of mixed ages, assessed 8 days after infestation

Measured: mortality at 200 ppm

CC(C)OCN(C(=O)c1cc(-c2cnn(-c3c(OC(F)F)c(C(F)(C(F)(F)F)C(F)(F)F)nn3C)c2)ccc1Cl)C1(C#N)CC1 [Example 2, 2-chloro-N-(1-cyanocyclopropyl)-5-[1-[4-(difluoromethoxy)-2-methyl-5-[1,2,2,2-tetrafluoro-1-(trifluoromethyl)ethyl]pyrazol-3-yl]pyrazol-4-yl]-N-(isopropoxymethyl)benzamide]
≥ 80%: [1]; [6] | [2]; [7] | [3]; [8] | [4]; [9] | [5]; [10]

CC(C)N(C(=O)c1cc(-c2cnn(-c3c(OC(F)F)c(C(F)(C(F)(F)F)C(F)(F)F)nn3C)c2)ccc1Cl)C1(C#N)CC1 [Example 5, 2-chloro-N-(1-cyanocyclopropyl)-5-[1-[4-(difluoromethoxy)-2-methyl-5-[1,2,2,2-tetrafluoro-1-(trifluoromethyl)ethyl]pyrazol-3-yl]pyrazol-4-yl]-N-isopropyl-benzamide]
≥ 80%: [1]; [6] | [4]; [9]

COCCCN(C(=O)c1cc(-c2cnn(-c3c(OC(F)F)c(C(F)(C(F)(F)F)C(F)(F)F)nn3C)c2)ccc1Cl)C1(C#N)CC1 [Example 6, 2-chloro-N-(1-cyanocyclopropyl)-5-[1-[4-(difluoromethoxy)-2-methyl-5-[1,2,2,2-tetrafluoro-1-(trifluoromethyl)ethyl]pyrazol-3-yl]pyrazol-4-yl]-N-(3-methoxypropyl)benzamide]
≥ 80%: [1]; [6] | [2]; [7] | [3]; [8] | [4]; [9] | [5]; [10]

COCCN(C(=O)c1cc(-c2cnn(-c3c(OC(F)F)c(C(F)(C(F)(F)F)C(F)(F)F)nn3C)c2)ccc1Cl)C1(C#N)CC1 [Example 7, 2-chloro-N-(1-cyanocyclopropyl)-5-[1-[4-(difluoromethoxy)-2-methyl-5-[1,2,2,2-tetrafluoro-1-(trifluoromethyl)ethyl]pyrazol-3-yl]pyrazol-4-yl]-N-(2-methoxyethyl)benzamide]
≥ 80%: [1]; [6] | [2]; [7] | [3]; [8] | [4]; [9] | [5]; [10]

CCOC(=O)N(C(=O)c1cc(-c2cnn(-c3c(OC(F)F)c(C(F)(C(F)(F)F)C(F)(F)F)nn3C)c2)ccc1Cl)C1(C#N)CC1 [Example 8, ethyl N-[2-chloro-5-[1-[4-(difluoromethoxy)-2-methyl-5-[1,2,2,2-tetrafluoro-1-(trifluoromethyl)ethyl]pyrazol-3-yl]pyrazol-4-yl]benzoyl]-N-(1-cyanocyclopropyl)carbamate]
≥ 80%: [1] | [2] | [3] | [4] | [5]

COCN(C(=O)c1cc(-c2cnn(-c3c(OC(F)F)c(C(F)(C(F)(F)F)C(F)(F)F)nn3C)c2)ccc1Cl)C1(C#N)CC1 [Example 9, 2-chloro-N-(1-cyanocyclopropyl)-5-[1-[4-(difluoromethoxy)-2-methyl-5-[1,2,2,2-tetrafluoro-1-(trifluoromethyl)ethyl]pyrazol-3-yl]pyrazol-4-yl]-N-(methoxymethyl)benzamide]
≥ 80%: [1]; [6] | [2]; [7] | [3]; [8] | [4]; [9] | [5]; [10]

CCOCN(C(=O)c1cc(-c2cnn(-c3c(OC(F)F)c(C(F)(C(F)(F)F)C(F)(F)F)nn3C)c2)ccc1Cl)C1(C#N)CC1 [Example 10, 2-chloro-N-(1-cyanocyclopropyl)-5-[1-[4-(difluoromethoxy)-2-methyl-5-[1,2,2,2-tetrafluoro-1-(trifluoromethyl)ethyl]pyrazol-3-yl]pyrazol-4-yl]-N-(ethoxymethyl)benzamide]
≥ 80%: [1]; [6] | [2]; [7] | [3]; [8] | [4]; [9] | [5]; [10]

Cn1nc(C(F)(C(F)(F)F)C(F)(F)F)c(OC(F)F)c1-n1cc(-c2ccc(Cl)c(C(=O)N(CC#N)C3(C#N)CC3)c2)cn1 [Example 11, 2-chloro-N-(1-cyanocyclopropyl)-N-(cyanomethyl)-5-[1-[4-(difluoromethoxy)-2-methyl-5-[1,2,2,2-tetrafluoro-1-(trifluoromethyl)ethyl]pyrazol-3-yl]pyrazol-4-yl]benzamide]
≥ 80%: [1]; [6] | [2]; [7] | [3]; [8] | [4]; [9] | [5]; [10]

CCOCCN(C(=O)c1cc(-c2cnn(-c3c(OC(F)F)c(C(F)(C(F)(F)F)C(F)(F)F)nn3C)c2)ccc1Cl)C1(C#N)CC1 [Example 13, 2-chloro-N-(1-cyanocyclopropyl)-5-[1-[4-(difluoromethoxy)-2-methyl-5-[1,2,2,2-tetrafluoro-1-(trifluoromethyl)ethyl]pyrazol-3-yl]pyrazol-4-yl]-N-(2-ethoxyethyl)benzamide]
≥ 80%: [1]; [6] | [2]; [7] | [3]; [8] | [5]; [10]

CCCN(C(=O)c1cc(-c2cnn(-c3c(OC(F)F)c(C(F)(C(F)(F)F)C(F)(F)F)nn3C)c2)ccc1Cl)C1(C#N)CC1 [Example 14, 2-chloro-N-(1-cyanocyclopropyl)-5-[1 - [4-(difluoromethoxy)-2-methyl-5-[1,2,2,2-tetrafluoro-1-(trifluoromethyl)ethyl]pyrazol-3-yl]pyrazol-4-yl]-N-propyl-benzamide]
≥ 80%: [1]; [6] | [4]; [9]

CC(C)OC(=O)N(C(=O)c1cc(-c2cnn(-c3c(OC(F)F)c(C(F)(C(F)(F)F)C(F)(F)F)nn3C)c2)ccc1Cl)C1(C#N)CC1 [Example 20, isopropyl N-[2-chloro-5-[1-[4-(difluoromethoxy)-2-methyl-5-[1,2,2,2-tetrafluoro-1-(trifluoromethyl)ethyl]pyrazol-3-yl]pyrazol-4-yl]benzoyl]-N-(1-cyanocyclopropyl)carbamate]
≥ 80%: [1] | [2] | [3] | [4]

CC(C)CN(C(=O)c1cc(-c2cnn(-c3c(OC(F)F)c(C(F)(C(F)(F)F)C(F)(F)F)nn3C)c2)ccc1Cl)C1(C#N)CC1 [Example 21, 2-chloro-N-(1-cyanocyclopropyl)-5-[1-[4-(difluoromethoxy)-2-methyl-5-[1,2,2,2-tetrafluoro-1-(trifluoromethyl)ethyl]pyrazol-3-yl]pyrazol-4-yl]-N-isobutyl-benzamide]
≥ 80%: [1]; [6] | [4]; [9]
